Assays:
FGT-1 = target: T1, FGT-1 (Caenorhabditis elegans, UniProt O44827); experiment: inhibition of 3H-2-DG uptake in Xenopus oocytes; format: cell-based; conditions: read-out: % inhibition at 30 mM
T1 construct: gene fdgt-1; full-length fgt-1a cDNA in pSP64T, untagged, cRNA-injected Xenopus laevis oocytes
T1 sequence (O44827 1-492 isoform O44827-2): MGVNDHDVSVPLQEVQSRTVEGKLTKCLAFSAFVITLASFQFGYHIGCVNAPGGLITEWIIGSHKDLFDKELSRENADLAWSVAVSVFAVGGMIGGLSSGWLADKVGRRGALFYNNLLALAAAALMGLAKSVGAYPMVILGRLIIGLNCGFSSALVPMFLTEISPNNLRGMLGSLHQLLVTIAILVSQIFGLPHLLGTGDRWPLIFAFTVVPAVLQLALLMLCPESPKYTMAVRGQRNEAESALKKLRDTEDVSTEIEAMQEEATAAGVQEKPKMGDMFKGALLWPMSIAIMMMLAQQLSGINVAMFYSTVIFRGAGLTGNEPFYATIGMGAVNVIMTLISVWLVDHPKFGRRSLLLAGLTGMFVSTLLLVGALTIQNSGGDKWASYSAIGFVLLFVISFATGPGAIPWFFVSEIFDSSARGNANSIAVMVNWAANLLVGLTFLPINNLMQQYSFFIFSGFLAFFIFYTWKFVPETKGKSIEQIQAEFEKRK

hGLUT1 = target: T2, hGLUT1 (Homo sapiens, UniProt P11166); experiment: 3H-2-DG uptake in cRNA-injected Xenopus oocytes; format: cell-based; conditions: 10 mM 2-DG, 15 min, pH 7.6; positive control; labelled compound as tracer
T2 construct: gene SLC2A1; pSP64T-hGLUT1, cRNA-injected Xenopus laevis oocytes
T2 sequence (P11166 1-492): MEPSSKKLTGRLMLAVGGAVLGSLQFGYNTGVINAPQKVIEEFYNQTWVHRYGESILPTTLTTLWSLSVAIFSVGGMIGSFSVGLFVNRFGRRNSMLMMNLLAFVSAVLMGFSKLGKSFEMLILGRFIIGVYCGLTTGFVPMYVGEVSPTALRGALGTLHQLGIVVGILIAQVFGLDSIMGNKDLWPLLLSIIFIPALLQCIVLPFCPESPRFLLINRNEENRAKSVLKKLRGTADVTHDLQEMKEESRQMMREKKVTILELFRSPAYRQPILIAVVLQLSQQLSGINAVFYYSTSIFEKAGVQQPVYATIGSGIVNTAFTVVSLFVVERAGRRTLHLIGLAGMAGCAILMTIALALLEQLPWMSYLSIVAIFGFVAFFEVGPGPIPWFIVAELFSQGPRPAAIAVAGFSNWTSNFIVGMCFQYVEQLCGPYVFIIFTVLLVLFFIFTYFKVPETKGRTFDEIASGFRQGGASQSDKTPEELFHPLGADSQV

Structure (SMILES) | inhibition at 30000 µM (FGT-1) [%] | 3H-2-DG uptake in cRNA-injected Xenopus oocytes (hGLUT1)
OC[C@H]1OC(O)[C@H](O)[C@@H](O)[C@H]1O (stereo partly drawn) [D-galactose] | 33 | 
OC[C@H]1OC(O)[C@H](O)[C@@H](O)[C@@H]1O (stereo partly drawn) [D-glucose] | 79 | 
CO[C@H]1[C@H](O)[C@@H](CO)OC(O)[C@@H]1O (stereo partly drawn) [3-O-methylglucose] | 77 | 
OCC1(O)OC[C@@H](O)[C@@H](O)[C@@H]1O (stereo partly drawn) [D-fructose] | 42 | 
OC[C@H]1OC(O)[C@@H](O)[C@@H](O)[C@@H]1O (stereo partly drawn) [D-mannose] | 79 | 
OC[C@H]1OC(O)C[C@@H](O)[C@@H]1O (stereo partly drawn) [2-deoxy-D-glucose] |  | The hGLUT1 cRNA-injected oocytes were used as a positive control

Reference: paper PMC3691140, “FGT-1 Is a Mammalian GLUT2-Like Facilitative Glucose Transporter in Caenorhabditis elegans Whose Malfunction Induces Fat Accumulation in Intestinal Cells” (PLoS ONE, 2013)
